One may read the EC50 as the midpoint of the concentration-response curve. High values mean a less potent agent, low ones a more potent agent.

Here are results for 22 compounds from patent publication US9695151B2, “3,4-dihydro-2H-isoquinoline-1-one and 2,3-dihydro-isoindol-1-one compounds” (Hoffmann-La Roche Inc., priority 2013, dated 2017).

The subject of experiment [1] is rat model of chronic kidney disease. Conditions: cited from earlier work.
The target in experiment [2] is T1, CYP11B2 (Homo sapiens (Human), UniProt P19099). To be noted: patients with primary aldosteronism, oral; cited from earlier work.
In experiment [3] the target is T1, CYP11B2. Put plainly: G-402 cellular enzyme assay, human CYP11B2 (aldosterone release). Conditions: G-402 cells, 1 μM Deoxycorticosterone. The experiment is classed as cell-based. The text has this: (§1) Herein we identified the use of the G-402 cell line as a host cell to ectopically express (transiently or stably) enzymes of the CYP11 family. Specifically we developed stable G-402 cells expressing ectopically human CYP11B1, human CYP11B2, human CYP11A1, cynmolgus CYP11B1 or cynomolgus CYP11B2 enzyme activity. Importantly the identified cell line G-402 expresses co-factors (adrenodoxin and adrenodoxin reductase) important for the activity of the CYP11 family and no relevant enzyme activity of the CYP11 family (in comparison to H295R cells) was detected in these cells. Therefore the G-402 cell line is uniquely suited as a host cell for the ectopic expression of enzymes from the CYP11 family.
(§2) G-402 cells can be obtained from ATCC (CRL-1440) and were originally derived from a renal leiomyoblastoma.
(§3) The expression plasmids contains the ORF for either human/cyno CYP11B1 or CYP11B2 under the control of a suitable promoter (CMV-promoter) and a suitable resistance marker (neomycin). Using standard techniques the expression plasmid is transfected into G-402 cells and these cells are then selected for expressing the given resistance markers. Individual cell-clones are then selected and assessed for displaying the desired enzymatic activity using 11-Deoxycorticosterone (Cyp11B2) or 11-Deoxycortisol (Cyp11B1) as a substrate.
(§4) G-402 cells expressing CYP11 constructs were established as described above and maintained in McCoy's 5a Medium Modified, ATCC Catalog No. 30-2007 containing 10% FCS and 400 μg/ml G418 (Geneticin) at 37° C. under an atmosphere of 5% CO2/95% air. Cellular enzyme assays were performed in DMEM/F12 medium containing 2.5% charcoal treated FCS and appropriate concentration of substrate (0.3-10 uM 11-Deoxycorticosterone, 11-Deoxycortisol or Corticosterone). For assaying enzymatic activity, cells were plated onto 96 well plates and incubated for 16 h. An aliquot of the supernatant is then transferred and analyzed for the concentration of the expected product (Aldosterone for CYP11B2; Cortisol for CYP11B1). The concentrations of these steroids can be determined using HTRF assays from CisBio analyzing either Aldosterone or Cortisol.
(§5) Inhibition of the release of produced steroids can be used as a measure of the respective enzyme inhibition by test compounds added during the cellular enzyme assay. The dose dependent inhibition of enzymatic activity by a compound is calculated by means of plotting added inhibitor concentrations (x-axes) vs. measured steroid/product level (y-axes). The inhibition is then calculated by fitting the following 4-parameter sigmoidal function (Morgan-Mercer-Flodin (MMF) model) to the raw data points using the least squares method:
(§6) [formula] wherein, A is the maximum y value, B is the EC50 factor determined using XLFit, C is the minimum y value and D is the slope value.
(§7) EC50 values for compounds claimed herein were tested with the G402-based assay system described. Cyp11B2 enzyme activity was tested in presence of 1 μM Deoxycorticosterone and variable amounts of inhibitors; Cyp11B1 enzyme activity was tested in presence of 1 μM Deoxycortisol and variable amounts of inhibitors.

Another experiment addresses human CYP11B1 (Homo sapiens (Human), UniProt P15538). Briefly: G-402 cellular enzyme assay, human CYP11B1 (cortisol release). To be noted: G-402 cells, 1 μM Deoxycortisol. The experiment is classed as cell-based.
From the text: as §1, §2, §3, §4, §5, §6, §7

Setting [4] is: angiotensin II and high salt treatment.

Sequence of human CYP11B1 (P15538 25-503): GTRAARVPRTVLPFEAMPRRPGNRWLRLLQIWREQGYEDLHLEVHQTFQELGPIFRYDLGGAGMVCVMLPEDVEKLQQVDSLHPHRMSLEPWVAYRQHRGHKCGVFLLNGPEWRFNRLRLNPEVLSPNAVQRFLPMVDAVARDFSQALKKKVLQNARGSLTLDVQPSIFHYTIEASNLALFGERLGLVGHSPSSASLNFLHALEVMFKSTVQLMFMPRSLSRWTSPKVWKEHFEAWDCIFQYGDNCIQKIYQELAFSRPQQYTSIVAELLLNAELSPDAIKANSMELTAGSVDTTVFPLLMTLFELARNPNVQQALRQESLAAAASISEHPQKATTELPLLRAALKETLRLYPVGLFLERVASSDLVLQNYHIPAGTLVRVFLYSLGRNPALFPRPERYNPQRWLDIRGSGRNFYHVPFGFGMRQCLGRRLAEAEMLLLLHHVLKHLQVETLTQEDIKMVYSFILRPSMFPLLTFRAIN
T1 sequence (P19099 25-503): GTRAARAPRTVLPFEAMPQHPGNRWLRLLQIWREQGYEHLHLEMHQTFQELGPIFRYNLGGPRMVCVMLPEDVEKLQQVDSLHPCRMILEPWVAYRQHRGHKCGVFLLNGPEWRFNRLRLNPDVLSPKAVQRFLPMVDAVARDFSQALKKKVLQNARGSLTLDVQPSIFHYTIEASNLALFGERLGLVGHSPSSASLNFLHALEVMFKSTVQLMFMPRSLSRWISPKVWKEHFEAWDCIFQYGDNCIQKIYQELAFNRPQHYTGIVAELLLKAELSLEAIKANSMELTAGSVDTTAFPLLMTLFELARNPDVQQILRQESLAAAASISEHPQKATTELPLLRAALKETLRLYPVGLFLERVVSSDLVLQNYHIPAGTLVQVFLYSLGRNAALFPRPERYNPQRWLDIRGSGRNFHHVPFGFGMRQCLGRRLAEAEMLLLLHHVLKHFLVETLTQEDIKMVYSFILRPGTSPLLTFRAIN

On to `CC(=O)S[C@@H]1CC2=CC(=O)CC[C@]2(C)[C@H]2CC[C@@]3(C)[C@@H](CC[C@@]34CCC(=O)O4)[C@H]12` [spironolactone], for which, in experiment [1] (setting [4]), the “cardiac and aortic medial hypertrophy” value is given as “attenuated”; the “renal effects (albuminuria, azotemia, renovascular hypertrophy, glomerular injury, PAI-1 and osteopontin mRNA, tubulointerstitial fibrosis)” value is reported as “prevented”. In experiment [1] (aorta and heart), the “angiotensin II and salt-stimulated PAI-1 mRNA expression” value was “enhanced”. Moreover, in experiment [1] (at 4 and 8 weeks of treatment), the aldosterone entry was “increased”.

As to `N#Cc1ccc([C@H]2CCc3cncn32)c(F)c1` [LCI699], on CYP11B2 [2], the blood pressure entry is recorded as “mildly decreased”, the circulating aldosterone levels entry is “significantly lower”, the hypokalemia entry is on record as “corrected” and the “selectivity (effects on the glucocorticoid axis)” value was “poor selectivity”.

For `CC(C)S(=O)(=O)N1CC(N(C)c2cncc(N3C(=O)c4ccc(Cl)cc4C3(C)C)c2)C1` [Example 13, 5-Chloro-3,3-dimethyl-2-[5-[methyl-(1-propan-2-ylsulfonylazetidin-3-yl)amino]pyridin-3-yl]isoindol-1-one], the EC50 at CYP11B2 [3] stood at 0.5 nM; on human CYP11B1, 37 nM.

As to `CCS(=O)(=O)N1CC(Nc2cncc(N3CCc4cc(Cl)ccc4C3=O)c2)C1` [Example 30, 6-Chloro-2-[5-[(1-ethylsulfonylazetidin-3-yl)amino]pyridin-3-yl]-3,4-dihydroisoquinolin-1-one], the EC50 turned out to be 61 nM at CYP11B2 [3] and 15400 nM on human CYP11B1.

As for `CCC(=O)N1CCC(Nc2cncc(N3C(=O)c4ccc(C#N)cc4C3(C)C)c2)CC1` [Example 44, 3,3-Dimethyl-1-oxo-2-[5-[(1-propanoyl-4-piperidyl)amino]-3-pyridyl]isoindoline-5-carbonitrile], the EC50 on CYP11B2 [3] was 22 nM; on human CYP11B1 it was 6990 nM.

For the compound `CC(=O)N1CCC(Nc2cncc(N3C(=O)c4ccc(Cl)cc4C3(C)C)c2)CC1` [Example 5, 2-[5-[(1-Acetylpiperidin-4-yl)amino]pyridin-3-yl]-5-chloro-3,3-dimethylisoindol-1-one], the EC50 on CYP11B2 [3] came out at 31 nM; on human CYP11B1, 2450 nM.

`CCC(=O)N1CC(Nc2cncc(N3C(=O)c4ccc(Cl)cc4[C@@H]3C)c2)C1` (single isomer, unassigned) [Example 40, (3S or 3R)-5-Chloro-3-methyl-2-[5-[(1-propanoylazetidin-3-yl)amino]-3-pyridyl]isoindolin-1-one]: the EC50 is 154 nM on CYP11B2 [3] and 4180 nM on human CYP11B1.

Take `CCC(=O)N1CC(Nc2cncc(N3C(=O)c4ccc(C#N)cc4C3(C)C)c2)C1` [Example 45, 3,3-Dimethyl-1-oxo-2-[5-[(1-propanoylazetidin-3-yl)amino]-3-pyridyl]isoindoline-5-carbonitrile]: the concentration giving a half-maximal response (EC50) at CYP11B2 [3] was 122 nM; at human CYP11B1 it was 5930 nM.

`CC1(C)c2cc(Cl)ccc2C(=O)N1c1cncc(NC2CCCN(S(C)(=O)=O)C2)c1` (single isomer, unassigned) [Example 22, 5-Chloro-3,3-dimethyl-2-[5-[[(3R or 3S)-1-methylsulfonylpiperidin-3-yl]amino]pyridin-3-yl]isoindol-1-one]: the EC50 on CYP11B2 [3] came out at 149 nM; at human CYP11B1, 27200 nM.

Regarding `CCC(=O)N1CC(Nc2cncc(N3C(=O)c4ccc(Cl)cc4C3C)c2)C1` (stereo not drawn) [Example 33, 5-Chloro-3-methyl-2-[5-[(1-propanoylazetidin-3-yl)amino]pyridin-3-yl]-3H-isoindol-1-one], the EC50 is 65 nM at CYP11B2 [3] and > 30000 nM on human CYP11B1.

For the compound `CC1(C)c2cc(Cl)ccc2C(=O)N1c1cncc(NC2CCCN(S(C)(=O)=O)C2)c1` (single isomer, unassigned) [Example 23, 5-Chloro-3,3-dimethyl-2-[5-[[(3S or 3R)-1-methylsulfonylpiperidin-3-yl]amino]pyridin-3-yl]isoindol-1-one], the EC50 at CYP11B2 [3] came to 1200 nM; at human CYP11B1, 18200 nM.

Consider `CC(=O)N1CC2(CC(Nc3cncc(N4C(=O)c5ccc(Cl)cc5C4(C)C)c3)C2)C1` [Example 35, 2-[5-[(2-Acetyl-2-azaspiro[3.3]heptan-6-yl)amino]pyridin-3-yl]-5-chloro-3,3-dimethylisoindol-1-one], for which the EC50 was found to be 449 nM on CYP11B2 [3] and 6850 nM at human CYP11B1.

Turning to `CCC(=O)N1CC(Nc2cncc(N3C(=O)c4ccc(Cl)cc4C3(C)C)c2)C1` [Example 9, 5-Chloro-3,3-dimethyl-2-[5-[(1-propanoylazetidin-3-yl)amino]pyridin-3-yl]isoindol-1-one], the EC50 stood at 10 nM at CYP11B2 [3] and 2560 nM at human CYP11B1.

Consider `CCS(=O)(=O)N1CC2(CC(Nc3cncc(N4C(=O)c5ccc(Cl)cc5C4(C)C)c3)C2)C1` [Example 37, 5-Chloro-2-[5-[(2-ethylsulfonyl-2-azaspiro[3.3]heptan-6-yl)amino]pyridin-3-yl]-3,3-dimethylisoindol-1-one], for which the EC50 is 10 nM on CYP11B2 [3] and 7370 nM at human CYP11B1.

For the compound `CCS(=O)(=O)N1CC(N(C)c2cncc(N3C(=O)c4ccc(Cl)cc4C3(C)C)c2)C1` [Example 10, 5-Chloro-2-[5-[(1-ethylsulfonylazetidin-3-yl)-methylamino]pyridin-3-yl]-3,3-dimethylisoindol-1-one], the figures for the EC50 at CYP11B2 [3] and at human CYP11B1 were 0.5 nM and 39 nM, respectively.

Regarding `CCS(=O)(=O)N1CCC(Nc2cncc(N3C(=O)c4ccc(C#N)cc4C3(C)C)c2)CC1` [Example 43, 2-[5-[(1-Ethylsulfonyl-4-piperidyl)amino]-3-pyridyl]-3,3-dimethyl-1-oxo-isoindoline-5-carbonitrile], the EC50 came to 13 nM on CYP11B2 [3] and 4570 nM at human CYP11B1.

For `CN(c1cncc(N2C(=O)c3ccc(Cl)cc3C2(C)C)c1)C1CN(S(C)(=O)=O)C1` [Example 11, 5-Chloro-3,3-dimethyl-2-[5-[methyl-(1-methylsulfonylazetidin-3-yl)amino]pyridin-3-yl]isoindol-1-one], the EC50 at CYP11B2 [3] came out at 3 nM; on human CYP11B1 it was 50 nM.

For the compound `CCS(=O)(=O)N1CCC(N(C)c2cncc(N3C(=O)c4ccc(Cl)cc4C3(C)C)c2)CC1` [Example 20, 5-Chloro-2-[5-[(1-ethylsulfonylpiperidin-4-yl)-methylamino]pyridin-3-yl]-3,3-dimethylisoindol-1-one], the EC50 at CYP11B2 [3] stood at 0.8 nM; on human CYP11B1, 0.4 nM.

Turning to `CC(=O)N1CC(Nc2cncc(N3C(=O)c4ccc(Cl)cc4C3(C)C)c2)C1` [Example 1, 2-[5-[(1-Acetylazetidin-3-yl)amino]pyridin-3-yl]-5-chloro-3,3-dimethylisoindol-1-one], the EC50 on CYP11B2 [3] amounted to 38 nM; at human CYP11B1, 5840 nM.

With `CC(C)S(=O)(=O)N1CCCC(Nc2cncc(N3C(=O)c4ccc(Cl)cc4C3(C)C)c2)C1` (single isomer, unassigned) [Example 26, 5-Chloro-3,3-dimethyl-2-[5-[[(3R or 3S)-1-propan-2-ylsulfonylpiperidin-3-yl]amino]pyridin-3-yl]isoindol-1-one], the figures for the EC50 at CYP11B2 [3] and at human CYP11B1 were 2360 nM and > 30000 nM, respectively.

For the compound `CCC(=O)N1CC(N(C)c2cncc(N3C(=O)c4ccc(Cl)cc4C3(C)C)c2)C1` [Example 12, 5-Chloro-3,3-dimethyl-2-[5-[methyl-(1-propanoylazetidin-3-yl)amino]pyridin-3-yl]isoindol-1-one], the EC50 at CYP11B2 [3] is 2 nM; at human CYP11B1, 86 nM.

For `CC(=O)N1CC(N(C)c2cncc(N3C(=O)c4ccc(Cl)cc4C3(C)C)c2)C1` [Example 2, 2-[5-[(1-Acetylazetidin-3-yl)-methylamino]pyridin-3-yl]-5-chloro-3,3-dimethylisoindol-1-one], the EC50 on CYP11B2 [3] is 12 nM; at human CYP11B1 it was 552 nM.
